In patent publication US3954775A, “Thiazolo(5,4-f)quinoline-8-carboxylic acid derivatives” (Sumitomo Chemical Company, Limited, priority 1973, dated 1976):
Converted amounts (≈) assume the structure as drawn. Like-named read-outs stand apart in the source and are kept apart here.

Experiments:
[1] = tested on: Aspergillus niger; test: antifungal activity on Sabourand agar; assay type: cell-based; details: read-out: minimum inhibitory concentration
Method: (§1) The activities of ethyl 2,9-dichlorothiazolo[5,4-f]quinoline-8-carboxylate-6-oxide (Compound (F)) on Trichophyton rubrum and Aspergillus niger were tested on Sabourand agar. […] The minimum inhibitory concentrations were 0.78 mcg/ml for Trichophyton rubrum and 25 mcg/ml for Aspergillus niger.

[2] = tested on: Trichophyton rubrum; test: antifungal activity on Sabourand agar; assay type: cell-based; details: read-out: minimum inhibitory concentration
Method: as §1

[3] = tested on: Trichophyton rubrum and Aspergillus niger; test: antifungal activity on Sabourand agar, fungi tested overall; assay type: cell-based
Method: as §1

[4] = tested on: Bacillus subtilis PCI 219; test: in vitro antibacterial activity, tube dilution method; assay type: cell-based; details: PCI219, read-out: In vitro Antibacterial Activities
Text: (§2) The in vitro antibacterial activities were compared with 6-ethyl-2,3,6,9-tetrahydro-3-methyl-2,9-dioxothiazolo[5,4-f]quinoline-8-carboxylic acid (hereinafter Compound (D)) and nalidixic acid (hereinafter Compound (E)) using the tube dilution method.

[5] = tested on: Escherichia coli NIHJ; test: as above; assay type: cell-based; details: read-out: In vitro Antibacterial Activities
Text: as §2

[6] = tested on: Klebsiella pneumoniae PCI 602; test: as above; assay type: cell-based
Text: as §2

[7] = tested on: Proteus mirabilis GN-2425; test: as above; assay type: cell-based
Text: as §2

[8] = tested on: Proteus vulgaris HX-19; test: as above; assay type: cell-based
Text: as §2

[9] = tested on: Pseudomonas aeruginosa 104; test: as above; assay type: cell-based
Text: as §2

[10] = tested on: Staphylococcus aureus 209-P; test: as above; assay type: cell-based; details: read-out: In vitro Antibacterial Activities
Text: as §2

[11] = tested on: Escherichia coli No. 34; test: in vivo protection of infected mice, oral; details: for ED50: Escherichia coli, intraperitoneal infection, oral 1 hour and 6 hours after infection, E. coli No. 34
Method: (§3) The mice were inoculated intraperitoneally with the test organisms in 5% gastric mucin. The test compounds were suspended in 0.5% carboxymethylcellulose and administered orally 1 hour and 6 hours after infection.

[12] = tested on: Escherichia coli No. 37; test: in vivo protection of infected mice, oral; details: intraperitoneal infection, oral 1 hour and 6 hours after infection, E. coli No. 37
Method: as §3

[13] = tested on: Proteus mirabilis GN-2425; test: in vivo protection of infected mice, oral; details: for ED50: Proteus mirabilis, GN2425, intraperitoneal infection, oral 1 hour and 6 hours after infection, P. mirabilis GN-2425
Method: as §3

[14] = tested on: organism tested; test: in vivo protection of infected mice, organisms tested overall; details: oral, result in words
Method: as §3

[15] = prior art statement in words; cited from earlier work
[16] = prior art statement in words; cited from earlier work; remark: listed apart in the source
[17] = tested on: gram-negative bacteria; test: in vitro antibacterial activity on gram-negative bacteria, tube dilution method; assay type: cell-based; details: for antibacterial activities on gram-negative bacteria: tube dilution method, result in words
Text: as §2

[18] = concentrations in serum of mice after a single oral dose; assay type: in vivo; details: single oral dose of 50 mg/kg
Method: […] concentrations in serum of Compound (A) and Compound (D) were determined in the mice after a single oral dose of 50 mg/kg. […] The peak value for Compound (A) was about 12 times higher than that of Compound (D).

[19] = urinary excretion in fasting rats after a single oral dose; assay type: in vivo; details: single oral dose of 50 mg/kg
Method: Urinary excretions in fasting rats after a single oral dose of 50 mg/kg were also examined.
Compound (A) was excreted in the urine about 7 times faster than Compound (D). Recovery rates of Compound (A) in the urine were 2.0% after 24 hours.

[20] = preliminary toxicity in rats, 9 days oral; assay type: in vivo, female rats of Spraugue-Dewlty-SLC strain; details: 1000 to 2000 mg/kg/day orally for 9 days
Method: To 6-week old female rats of Spraugue-Dewlty-SLC strain, 1000 to 2000 mg/kg/day of Compound A were administered orally for 9 days.

[21] = tested on: Diplococcus pneumoniae Newfeld; test: in vitro antibacterial activity, tube dilution method; assay type: cell-based; details: Streptococcus pneumoniae, read-out: In vitro Antibacterial Activities
Text: as §2

[22] = tested on: Sarcina lutea PCI 1001; test: as above; assay type: cell-based; details: Micrococcus luteus, PCI1001, read-out: In vitro Antibacterial Activities
Text: as §2

[23] = tested on: Staphylococcus albus 1200 A; test: as above; assay type: cell-based; details: read-out: In vitro Antibacterial Activities
Text: as §2

[24] = tested on: Streptococcus hemolyticus A-1; test: as above; assay type: cell-based; details: Streptococcus pyogenes, A1, read-out: In vitro Antibacterial Activities
Text: as §2

[25] = tested on: gram-positive bacteria such as Staphylococcus, Streptococcus, Diplococcus; test: in vitro antibacterial activity on gram-positive bacteria, tube dilution method; assay type: cell-based; details: result in words
Text: as §2
The antibacterial spectrum of 3-benzyl-6-benzyloxy-2,3,6,9-tetrahydro-2,9-dioxothiazolo[5,4-f]quinoline- 8-carboxylic acid (hereinafter Compoud (B)) is different from the other compounds.

[26] = Escherichia coli NIHJ, tube dilution method
[27] = PCI602, Klebsiella pneumoniae PCI 602, tube dilution method, read-out: In vitro Antibacterial Activities
[28] = GN2425, Proteus mirabilis GN-2425, tube dilution method, read-out: In vitro Antibacterial Activities
[29] = HX19, Proteus vulgaris HX-19, tube dilution method, read-out: In vitro Antibacterial Activities
[30] = Pseudomonas aeruginosa 104, tube dilution method, read-out: In vitro Antibacterial Activities
[31] = Staphylococcus aureus 209-P, tube dilution method

Row | SMILES | MIC [4] | MIC [5, 26] | MIC [6, 27] | MIC [7, 28] | MIC [8, 29] | MIC [9, 30] | MIC [10, 31] | ED50 [11] | ED50 [12] | ED50 [13] | antibacterial activities on gram-negative bacteria [17] | also measured
1 | CCOC(=O)c1c[n+]([O-])c2ccc3nc(Cl)sc3c2c1Cl [F, ethyl 2,9-dichlorothiazolo[5,4-f]quinoline-8-carboxylate-6-oxide] | – | – | – | – | – | – | – | – | – | – | – | MIC [1]: 25 µg/mL (≈ 72.8 µM); MIC [2]: 0.78 µg/mL (≈ 2.27 µM); inhibitory activity on the fungi tested ([3]; Sabourand agar, result in words): exhibited inhibitory activity on the fungi tested; antifungal activity in vitro relative to griseofulvin ([3]; in vitro, comparison in words): twice as active than griseofulvin
2 | CCn1cc(C(=O)O)c(=O)c2c3sc(=O)n(C)c3ccc21 [Compound D, 6-ethyl-2,3,6,9-tetrahydro-3-methyl-2,9-dioxothiazolo[5,4-f]quinoline-8-carboxylic acid, reference compound] | 0.25 µg/mL (≈ 0.821 µM) | 0.2 µg/mL (≈ 0.657 µM) | 0.2 µg/mL (≈ 0.657 µM) | 0.78 µg/mL (≈ 2.56 µM) | 0.1 µg/mL (≈ 0.329 µM) | > 200 µg/mL | 12.5 µg/mL (≈ 41.1 µM) | > 100 mg/kg | > 40 mg/kg | > 40 mg/kg | – | activities on the organism tested in vivo [14]: did not show activities on the organism tested; antibacterial activity in vitro [15]: noticeable antibacterial activity in vitro; antibacterial activity in vivo [16]: does not possess a sufficient antibacterial activity in vivo
3 | COn1cc(C(=O)O)c(=O)c2c3sc(=O)n(C)c3ccc21 [Compound A, 2,3,6,9-Tetrahydro-6-methoxy-3-methyl-2,9-dioxothiazolo[5,4-f]quinoline-8-carboxylic acid] | 0.5 µg/mL (≈ 1.63 µM) | 0.2 µg/mL (≈ 0.653 µM) | 0.2 µg/mL (≈ 0.653 µM) | 0.39 µg/mL (≈ 1.27 µM) | 0.1 µg/mL (≈ 0.326 µM) | 25 µg/mL (≈ 81.6 µM) | 12.5 µg/mL (≈ 40.8 µM) | 50 mg/kg | > 20 mg/kg | 14 mg/kg | showed antibacterial activities on gram-negative bacteria | activity in vitro compared with Compound (D) ([17]; comparison in words): as active as Compound (D); activity in vitro compared with Compound (E) ([17]; comparison with nalidixic acid in words): more active than Compound (E); effectiveness in protecting mice against E. Coli No. 34, compared with Compound (D) ([11]; oral, comparison in words): more effective than Compound (D); effectiveness in protecting mice against P. Mirabilis GN 2425, compared with Compound (D) ([13]; oral, comparison in words): more effective than Compound (D); time at which serum levels reached a maximum [18]: within an hour; peak serum value relative to Compound (D) ([18]; times higher than Compound (D)): about 12 times; dose excreted at 24 h ([19]; rat, urine, after 24 hours, read-out: Recovery rates in the urine): 2%; excretion in the urine, times faster than Compound (D) [19]: about 7 times; urinary concentration compared with Compound (D) ([19]; in words): superior to Compound (D); urinary recovery rate compared with Compound (D) ([19]; in words): superior to Compound (D); macroscopic examinations [20]: no abnormal findings were observed; symptoms [20]: No significant symptoms were observed; urinalysis (pH, protein, glucose, ketone bodies and occult blood) [20]: no abnormality was found; body weight ([20]; at all doses): did not decrease; body weight-gain ([20]; at all doses): slightly decreased
4 | CCn1cc(C(=O)O)c(=O)c2ccc(C)nc21 [E, nalidixic acid, reference compound] | – | – | – | – | – | – | – | – | – | – | – | MIC ([5]; Escherichia coli): 3.13 µg/mL (≈ 13.5 µM); MIC ([6]; Klebsiella pneumoniae, PCI602, read-out: In vitro Antibacterial Activities): 3.13 µg/mL (≈ 13.5 µM); MIC ([7]; Proteus mirabilis, GN2425, read-out: In vitro Antibacterial Activities): 6.25 µg/mL (≈ 26.9 µM); MIC ([8]; Proteus vulgaris, HX19, read-out: In vitro Antibacterial Activities): 0.78 µg/mL (≈ 3.36 µM); MIC ([9]; Pseudomonas aeruginosa, 104, read-out: In vitro Antibacterial Activities): > 200 µg/mL; MIC ([10]; Staphylococcus aureus, 209P): 100 µg/mL (≈ 431 µM)
5 | O=C(O)c1cn(OCc2ccccc2)c2ccc3c(sc(=O)n3Cc3ccccc3)c2c1=O [B, 3-benzyl-6-benzyloxy-2,3,6,9-tetrahydro-2,9-dioxothiazolo[5,4-f]quinoline-8-carboxylic acid] | 0.78 µg/mL (≈ 1.7 µM) | > 200 µg/mL | > 200 µg/mL | > 200 µg/mL | > 200 µg/mL | > 200 µg/mL | 1.56 µg/mL (≈ 3.4 µM) | – | – | – | – | MIC [21]: 1.56 µg/mL (≈ 3.4 µM); MIC [22]: 1.56 µg/mL (≈ 3.4 µM); MIC [23]: 3.13 µg/mL (≈ 6.83 µM); MIC [24]: 1.56 µg/mL (≈ 3.4 µM); inhibitory activity on gram-positive bacteria [25]: exhibited inhibitory activity on gram-positive bacteria
6 | C=CCOn1cc(C(=O)O)c(=O)c2c3sc(=O)n(CC=C)c3ccc21 [C, 2,3,6,9-tetrahydro-3-allyl-6-allyloxy-2,9-dioxothiazolo[5,4-f]quinoline-8-carboxylic acid] | – | 100 µg/mL (≈ 279 µM) | 200 µg/mL (≈ 558 µM) | > 200 µg/mL | 3.13 µg/mL (≈ 8.73 µM) | > 200 µg/mL | 50 µg/mL (≈ 140 µM) | – | – | – | showed antibacterial activities on gram-negative bacteria | –
